Results on one molecule are retold here after patent US20260048036A1, “CRYSTALLINE FORMS OF A GLUCOSYLCERAMIDE SYNTHASE INHIBITOR AND USES THEREOF” (ACELINK THERAPEUTICS, INC., priority 2022, published 2026).

Several values for one entry are separate records, joined by “and”; a condition that tells them apart may be missing. Equal values may be shown once.

In this assay the target is T1, Glucosylceramide synthase (GCS) (Canis lupus familiaris, UniProt A0A8I3MXG6).
T1 construct: The MDCK, K-562, and L6 cell lines all endogenously express GCS enzyme; host or cells: MDCK (canine kidney) cell lysate
T1 sequence (A0A8I3MXG6 1-394): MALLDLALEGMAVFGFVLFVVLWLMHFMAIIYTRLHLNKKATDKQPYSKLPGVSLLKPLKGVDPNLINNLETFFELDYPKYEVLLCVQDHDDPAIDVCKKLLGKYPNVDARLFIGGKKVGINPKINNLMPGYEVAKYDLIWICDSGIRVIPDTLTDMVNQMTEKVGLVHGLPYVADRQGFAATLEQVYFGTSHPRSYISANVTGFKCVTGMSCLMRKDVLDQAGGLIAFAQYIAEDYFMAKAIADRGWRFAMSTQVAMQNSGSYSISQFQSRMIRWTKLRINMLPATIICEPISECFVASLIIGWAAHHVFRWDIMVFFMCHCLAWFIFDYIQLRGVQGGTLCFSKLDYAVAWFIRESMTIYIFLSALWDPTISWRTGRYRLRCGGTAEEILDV
In words: GCS enzymatic assay with MDCK cell lysate. It counts as biochemical, canine. An excerpt:
The reaction product, C6-NBD-glucosylceramide, could then be detected and quantified by LC-MS/MS. The inventors used this method to test and validate the effect of various GCS inhibitors on GCS enzyme activity from different species.
The GCS enzyme activity was detected by using the fluorescent substrate, C6-NBD-ceramide, and monitoring the formation of the fluorescent reaction product, C6-NBD-glucosylceramide. First, the inventors used cell lysate derived from a canine kidney cell line (MDCK, ATCC Cat #CCL-34™) as the source of GCS and tested the inhibitory activity of several control and test compounds.
GCS activity was evaluated using a GCS enzyme assay derived from MDCK or L6 cell lysates.
MDCK or L6 cell lysates were prepared using M-PER in the presence of a protease inhibitor cocktail. Each 100 mm dish (100% confluent) was lysed with 250 μl of M-PER containing protease inhibitors. Protein concentration was determined using Pierce BCA protein assay kit.
The final concentration of DMSO was 0.1% in both compound treated and DMSO only treated samples. Each individual reaction was terminated with 11 volumes of methanol:acetonitrile (6:5; containing 200 ng/ml Tolbutamide as internal control). After sufficient mixing, reactions were centrifuged at 2000 rpm for 10 mins, supernatant was injected into the LC-MS/MS for analysis.
The quantitative analysis of C6-NBD-glucosylceramide was performed on a Shimadzu ultra-fast liquid chromatography coupled with API 4000 mass spectrometer. Analyst 1.5 software packages were used to control the LC-MS/MS system, as well as for data acquisition and processing.
The C6-NBD-glucosylceramide reading was normalized first by dividing the peak area of C6-NBD-glucosylceramide with the peak area of the internal standard, and then the amount was calculated according to the standard curve generated in the same assay run. For the cell based assay results, the amount of C6-NBD-glucosylceramide was also normalized by the protein concentration of the cell samples.
IC50 values were generated from sigmoidal dose-response (variable slope) curves with GraphPad Prism software (GraphPad Software, Inc., San Diego, CA) using the percent inhibition of C6-NBD-glucosylceramide accumulation relative to DMSO control.

Setting [1] is: 0.1 μM, 60 μg MDCK lysate/reaction, N = 1, N = 2.

In general, Inhibition refers to the share of the control response that was lost under treatment. A lower Inhibition goes with a weak effect. In general, inhibition refers to the drop in the measured response relative to a control, in per cent. For orientation: IC50 means the point on the concentration scale where inhibition reaches its midpoint. A high value points to lower potency. With `O=C(N[C@H](CN1CCCC1)[C@H](O)c1ccc(OC2CC2)c(Cl)c1)/C(=N/O)c1ccc2cc(Cl)ccc2c1` [Crystalline Form A of Compound 1], under setting [1], the “C6-NBD-Ceramide (Normalized to internal control)” value is 5.04 and 4.88; the “C6-NBD-Glucosylceramide Concentration” value is 33.1 nM and 32.5 nM; the Inhibition was 96.72%; the inhibition at 0.1 µM amounted to 96.7%. Moreover, where the note is “MDCK cell lysate as source of GCS, C6-NBD-glucosylceramide by LC-MS/MS”, the IC50 worked out at 7.66 nM.
